Assays:
[1] = test system: PLC/PRF/5 cells; assay: Clonogenic assay, PLC/PRF/5; type: cell-based; settings: 6 h exposure, 10 days culture, 5-FU 200 μM, Sorafenib 20 μM, CuCl2 1 μM, disulfiram-PLGA 200 nM
Protocol: (§1) […] The cells were collected and sub-cultured in 6-well plates containing drug-free medium at a cell density of 10^3/well. After 10 days culture, the clonogenic cells were determined by counting the colonies containing at least 50 cells.
(§2) The treated cells were collected and sub-cultured in 6-well plates containing drug-free medium at a cell density of 500 cells/well for another 10 days.

[2] = test system: Huh7 cells; assay: Clonogenic assay, Huh7; type: cell-based; settings: 6 h exposure, 10 days culture, 5-FU 200 μM, Sorafenib 20 μM, CuCl2 1 μM, disulfiram-PLGA 200 nM
Protocol: as §1, §2

[3] = type: in vitro ADME; settings: horse, 100 μg/ml
Protocol: The eppendoff tubes were collected and protein was precipitated by the addition of 300 μl of absolute methanol at different time intervals. The supernatant was then subjected to HPLC measurement.
The free disulfiram was rapidly degraded in the serum to undetectable levels within 30 seconds (FIG. 1E). In contrast, disulfiram commenced its release from PLGA nanoparticles at 2 min which was equivalent to 34.23±3.38% of the initial drug loading and peaked in 4 min at 51.27±5.98% of the initial drug loading. The controlled release lasted for at least 24 hours. […] Importantly, after 4 hours incubation, the disulfiram concentration in the serum still remained at ˜90 μM which is markedly higher than the IC50s of disulfiram in a wide range of cancer types (˜50-500 nM).

[4] = cited from earlier work
[5] = test system: a wide range of cancer types; settings: read-out: IC50s of disulfiram; cited from earlier work
[6] = test system: Huh7 HCC cell line; assay: MTT cytotoxicity assay and CI-isobologram, Huh7; type: cell-based; settings: for IC50: Homo sapiens, Huh-7, Huh7, 72 h, single drug; for combinational effect with Disulfiram-PLGA (CI-isobologram): Huh7, Cu 1 μM; for sensitivity of cells at hypoxic condition: Huh7, hypoxic versus normoxic culture, 72 h
Protocol: (§3) The PLC/PRF/5 and Huh7 HCC cell lines were cultured in DMEM (Lonza, Wokingham, UK) supplemented with 10% FCS, 50 units/ml penicillin, 50 μg/ml streptomycin.
(§4) The IC50s from single and two-drug-treated cells were detected. […] The combination index (CI) was determined by mutually exclusive equations.

[7] = test system: PLC/PRF/5 HCC cell line; assay: MTT cytotoxicity assay and CI-isobologram, PLC/PRF/5; type: cell-based; settings: for IC50: Homo sapiens, PLC/PRF/5, 72 h, single drug; for combinational effect with Disulfiram-PLGA (CI-isobologram): PLC/PRF/5, Cu 1 μM; for sensitivity of cells at hypoxic condition: PLC/PRF/5, hypoxic versus normoxic culture, 72 h
Protocol: as §3, §4

[8] = test system: PLC/PRF/5 xenografts; assay: Liver cancer xenograft experiments; type: in vivo, BALB/c Nu/Nu athymic nude mice; settings: copper alone (CuGlu 6 mg/kg p.o.)
Protocol: PLC/PRF/5 cells (5×10^5) were subcutaneously injected at one front flank of the mice. When the tumor volume reached ˜200 mm^3, the tumor bearing mice were randomly subdivided into 6 groups (8 mice/group) e.g. control, CuGlu 6 mg/kg p.o., empty nanoparticles+CuGlu 6 mg/kg p.o., PLGA-disulfiram 2.5 mg/kg i.v.+CuGlu 6 mg/kg p.o., PLGA-disulfiram 5 mg/kg i.v.+CuGlu 6 mg/kg p.o., PLGA-disulfiram 10 mg/kg i.v.+CuGlu 6 mg/kg p.o. The drugs were administered 3 times/week for successive 3 weeks.
Five-week-old female BALB/c Nu/Nu athymic nude mice (Biotechology & Cell Biology Shanghai, China) were housed under pathogen-free conditions. PLC/PRF/5 cells (5×10^5) were subcutaneously injected at one front flank of the mice. When the tumour volume (V) reached ˜200 mm^3, the tumour bearing mice were randomly subdivided into 6 groups (8 mice/group) and treated 3 times/week e.g. control; copper gluconate (CuGlu) 6 mg/kg p.o., empty nanoparticles+CuGlu 6 mg/kg p.o., PLGA-disulfiram 2.5 mg/kg i.v.+CuGlu 6 mg/kg p.o.; PLGA-disulfiram 5 mg/kg i.v.+CuGlu 6 mg/kg p.o., PLGA-disulfiram 10 mg/kg i.v.+CuGlu 6 mg/kg p.o. The tumour volume was calculated by the following formula: V=(L×W^2)×0.5, where L is the length and W is the width of the tumour. The xenograft size was observed and recorded trice per week for 3 weeks. The animals were sacrificed after three weeks. […]

Molecule	colony numbers versus control [1]	colony numbers versus control [2]	time to degradation to undetectable levels in serum [3]	previously published half-life data [4]	IC50 [5]	IC50 [6]	combinational effect with Disulfiram-PLGA (CI-isobologram) [6]	sensitivity of cells at hypoxic condition [6]	IC50 [7]	combinational effect with Disulfiram-PLGA (CI-isobologram) [7]	sensitivity of cells at hypoxic condition [7]	effect on tumor growth [8]
[Cl][Cu][Cl] [CuCl2, copper(II) chloride]	no significant difference	no significant difference										
CCN(CC)C(=S)SSC(=S)N(CC)CC [free disulfiram, Disulfiram]			≤ 30 s	4 min	0.05 to 0.5 µM							
CNC(=O)c1cc(Oc2ccc(NC(=O)Nc3ccc(Cl)c(C(F)(F)F)c3)cc2)ccn1 [Sorafenib]	no significant difference	no significant difference				22.9 µM	very significant synergistic	significantly resistant	30.9 µM	very significant synergistic	significantly resistant	
copper gluconate												no effect
O=c1[nH]cc(F)c(=O)[nH]1 [5-FU, 5-fluorouracil]	no significant difference	no significant difference				103 µM	very significant synergistic	significantly resistant	123 µM	very significant synergistic	significantly resistant	

Reference: patent publication US10695299B2, “Disulfiram formulation” (UNIVERSITY OF WOLVERHAMPTON, priority 2015, dated 2020)
